What was measured:
PptT [1] = target: T1, PptT (Mycobacterium tuberculosis, UniProt O33336); assay type: biochemical, M. tuberculosis; conditions: MAS as target carrier protein (4 µM MAS, 2 µM rhodamine CoA), 250 nM PptT
T1 sequence (O33336 1-227): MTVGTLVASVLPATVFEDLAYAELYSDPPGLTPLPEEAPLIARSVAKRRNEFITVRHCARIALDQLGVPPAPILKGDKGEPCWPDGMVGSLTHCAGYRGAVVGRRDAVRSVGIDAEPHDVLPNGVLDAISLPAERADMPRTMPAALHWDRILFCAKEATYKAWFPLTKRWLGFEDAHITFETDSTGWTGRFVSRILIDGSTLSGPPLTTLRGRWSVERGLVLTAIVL

PptT [2] = target: T1, PptT; experiment: biochemical; assay type: binding, M. tuberculosis
Sfp = target: T2, Sfp (Bacillus subtilis, UniProt P39135); experiment: Isothermal titration calorimetry of CoA analogs binding to Sfp; design: species or system B. subtilis
T2 sequence (P39135 1-224): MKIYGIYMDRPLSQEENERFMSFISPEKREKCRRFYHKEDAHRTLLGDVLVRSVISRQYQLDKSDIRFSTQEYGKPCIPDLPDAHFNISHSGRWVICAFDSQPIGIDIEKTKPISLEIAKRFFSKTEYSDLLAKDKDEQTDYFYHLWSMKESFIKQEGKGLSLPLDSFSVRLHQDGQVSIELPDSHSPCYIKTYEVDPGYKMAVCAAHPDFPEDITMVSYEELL

HsPPT = conditions: cited from earlier work

SMILES: CN[C@@H](C)[C@H](O)c1ccccc1 [(−)-ephedrine hemisulfate, (−)-ephedrine]
- IC50, PptT, MAS (PptT [1]): inactive

SMILES: CC(C)(COP(=O)(O)OP(=O)(O)OC[C@H]1O[C@@H](n2cnc3c(N)ncnc32)[C@H](O)[C@@H]1OP(=O)(O)O)[C@@H](O)C(=O)NCCC(=O)NCCS [CoA, coenzyme A]
- Kd (PptT [2]): 36 ± 13 nM
- enthalpy of binding (ΔH), PptT (PptT [2]; ITC, 16°C): −5.78 ± 0.08 kcal mol^–1
- entropy of binding (TΔS), PptT (PptT [2]; ITC, 16°C): 4.14 ± 0.16 kcal mol^–1
- Kd (Sfp): 3400 ± 200 nM
- enthalpy of binding (ΔH), Sfp (Sfp; ITC, 16°C): −12.5 ± 0.15 kcal mol^–1
- entropy of binding (TΔS), Sfp (Sfp; ITC, 16°C): −5.07 ± 0.38 kcal mol^–1

SMILES: N=C1Sc2ccccc2C2=NCCCN12 [PD 404, 182]
- inhibitory activity against HsPPT (HsPPT): no inhibitory activity

SMILES: CN=c1nc(-c2ccccc2)n(-c2ccccc2)s1 [SCH-202676]
- inhibitory activity against HsPPT (HsPPT): no inhibitory activity

SMILES: Clc1ccc(C(c2ccc(Cl)cc2)n2cc[n+](CC(OCc3ccc(Cl)cc3Cl)c3ccc(Cl)cc3Cl)c2)cc1 (stereo not shown) [calmidazolium Cl, calmidazolium chloride]
- inhibitory activity against HsPPT (HsPPT): no inhibitory activity

SMILES: NC(N)=Nc1ccc2[nH]c3c(c2c1)C[C@@]1(O)[C@H]2Cc4ccc(O)c5c4[C@@]1(CCN2CC1CC1)[C@H]3O5.O=C(O)C(F)(F)F.O=C(O)C(F)(F)F [guanidinyl-naltrindole 2CF3COOH, guanidinyl-naltrindole]
- inhibitory activity against HsPPT (HsPPT): no inhibitory activity

SMILES: O=C1c2c(O)ccc(O)c2C(=O)c2c(NCCNCCO)ccc(NCCNCCO)c21 [mitoxantrone 2HCl, mitoxantrone]
- IC50, PptT, MAS (PptT [1]): inactive

SMILES: C[n+]1cc2c3c(ccc2c2ccc4cc5c(cc4c21)OCO5)OCO3 [sanguinarine Cl, sanguinarine chloride]
- inhibitory activity against HsPPT (HsPPT): no inhibitory activity
